A short description of data set [1]: pH-responsiveness by HPLC: emetine released in aqueous phosphate buffer. The following applies: 37° C. It is filed as physicochemical. As for the experimental part: Relative rates of hydrolysis of the compounds listed in Table 5 below over a 48 hour period were evaluated using the percent emetine released from the acid catalyzed hydrolysis of compounds 1 to 6.
The compounds were incubated in aqueous phosphate buffer at pH 5.5, 6.5 and 7.4 at 37° C. over a 48 hour period. High performance liquid chromatography (HPLC) was employed to analyze the samples and quantify how much emetine was released. The compounds whose hydrolysis to emetine is shown in table 5 are all 100% stable at physiological pH 7.4 up to a 5 day exposure.

A further data set has as its system PC3 cells. Kind of data set: cells. It is filed as cell-based. The following applies: Homo sapiens, PC-3, 168 h, read-out: IC50 after 7 days. As for the experimental part:
(§1) Studies were carried out on three prostate cancer cell lines: LNCaP, PC3, and DU145. […] There was not a significant difference in cytotoxicity of emetine between days 3 and 7. […] This increase is most likely due to the release of emetine from the dithiocarbamate salt over the time period. Further drug release studies at pH 5 confirmed about 45% release of emetine from the dithiocarbamate salt after 3-day incubation at this acidic pH maintained at 37° C., whereas release of emetine from the dithiocarbamate salt was not observed at physiological pH (e.g., about 7.4).
(§2) Various compounds prepared according to Examples 1-5 were studied in LNCaP, PC3, and DU145 cells.
(§3) Various compounds prepared according to Example 6 were studied in DU145 and PC3 cells. The IC50 was determined at 3, 5, and 7 days.

The test system of another data set is DU145 cells. The data set is described as follows: cells. It is filed as cell-based. The following applies: Homo sapiens, DU-145, 168 h, read-out: IC50 after 7 days. As for the experimental part:
as §1, §2, §3

In a further data set the test system is LNCaP cells. Kind of data set: Cytotoxicity in LNCaP prostate cancer cell line. It counts as cell-based. The following applies: Homo sapiens, 168 h, read-out: IC50 after 7 days. As to the method: as §1, §2

For the compound `CCC1CN2CCc3cc(OC)c(OC)cc3C2CC1CC1c2cc(OC)c(OC)cc2CCN1C(=O)/C=C\C(=O)O` (centres unmarked) [Compound 2], the “% Emetine at pH 5.5” value in data set [1] (pH 5.5, 0 hr) was 0.0%; in data set [1] (pH 5.5, 24 hrs), 36.3%; in data set [1] (pH 5.5, 48 hrs) it was 54.10%. The “% Emetine at pH 6.5” value was determined as 0.0% in data set [1] (pH 6.5, 0 hr) and 35.5% in data set [1] (pH 6.5, 24 hrs). Further, the “% Emetine at pH 7.4 to 8.0 over 72 hrs” value in data set [1] (pH 7.4 to 8.0, 0 hrs) is 0.0%; in data set [1] (pH 7.4 to 8.0, 24 hrs), 0.0%; in data set [1] (pH 7.4 to 8.0, 48 hrs), 0.0%.
Regarding `CCC1CN2CCc3cc(OC)c(OC)cc3C2CC1CC1c2cc(OC)c(OC)cc2CCN1C(=O)/C=C(/C)C(=O)O` (centres unmarked) [Compound 3], the “% Emetine at pH 5.5” value came out at 0.0% in data set [1] (pH 5.5, 0 hr); 78.1% in data set [1] (pH 5.5, 24 hrs); 93.4% in data set [1] (pH 5.5, 48 hrs). Moreover, the “% Emetine at pH 6.5” value stood at 0.0% in data set [1] (pH 6.5, 0 hr); 76.8% in data set [1] (pH 6.5, 24 hrs); 82.7% in data set [1] (pH 6.5, 48 hrs). In addition, the “% Emetine at pH 7.4 to 8.0 over 72 hrs” value in data set [1] (pH 7.4 to 8.0, 0 hrs) is listed as 0.0%; in data set [1] (pH 7.4 to 8.0, 24 hrs), 0.0%; in data set [1] (pH 7.4 to 8.0, 48 hrs), 0.0%.
Consider `CCC1CN2CCc3cc(OC)c(OC)cc3C2CC1CC1c2cc(OC)c(OC)cc2CCN1C(=O)/C=C\C(=O)O` (centres unmarked) [Compound 4], for which the “% Emetine at pH 5.5” value in data set [1] (pH 5.5, 0 hr) is 0.0%; in data set [1] (pH 5.5, 24 hrs) it was 19.2%; in data set [1] (pH 5.5, 48 hrs), 27.1%. Also, the “% Emetine at pH 6.5” value was 0.0% in data set [1] (pH 6.5, 0 hr); 8.2% in data set [1] (pH 6.5, 24 hrs); 17.1% in data set [1] (pH 6.5, 48 hrs). In addition, the “% Emetine at pH 7.4 to 8.0 over 72 hrs” value in data set [1] (pH 7.4 to 8.0, 0 hrs) stood at 0.0%; in data set [1] (pH 7.4 to 8.0, 24 hrs), 0.0%; in data set [1] (pH 7.4 to 8.0, 48 hrs), 0.0%.
`CCC1CN2CCc3cc(OC)c(OC)cc3C2CC1CC1c2cc(OC)c(OC)cc2CCN1C(=S)SCCC(N)=O` (centres unmarked) [Compound 4b]: the 50% inhibitory concentration (IC50) was 6560 ± 1110 nM in the data set with PC3 cells, above 10000 nM in the data set on DU145 cells and above 10000 nM with LNCaP cells.
`CCOC(=O)c1ccc(NC(=O)CSC(=S)N2CCc3cc(OC)c(OC)cc3C2CC2CC3c4cc(OC)c(OC)cc4CCN3CC2CC)cc1` (centres unmarked) [Compound 4c]: the IC50 with PC3 cells was determined as 2710 ± 192 nM; in the data set on DU145 cells, 2470 ± 263 nM; in the data set on LNCaP cells, 1660 ± 564 nM.
Consider `CCC1CN2CCc3cc(OC)c(OC)cc3C2CC1CC1c2cc(OC)c(OC)cc2CCN1C(=S)SCCN1C(=O)c2ccccc2C1=O` (centres unmarked) [Compound 4d], for which the IC50 with PC3 cells was found to be 2770 ± 60 nM; in the data set with DU145 cells, 3050 ± 70 nM.
Regarding `CCC1CN2CCc3cc(OC)c(OC)cc3C2CC1CC1c2cc(OC)c(OC)cc2CCN1C(=S)SCc1ccccc1` (centres unmarked) [Compound 4f], the values for the IC50 in the data set on PC3 cells, with DU145 cells and with LNCaP cells were 1560 ± 290 nM, 1980 ± 213 nM and 1970 ± 88 nM, respectively.
The matching figures for `CCC1CN2CCc3cc(OC)c(OC)cc3C2CC1CC1c2cc(OC)c(OC)cc2CCN1C(=S)SCC(=O)Nc1ccc(Br)cc1` (centres unmarked) [Compound 4g]: 2770 ± 146 nM, 2800 ± 151 nM and 1700 ± 187 nM.
The matching figures for `CCCCCCSC(=S)N1CCc2cc(OC)c(OC)cc2C1CC1CC2c3cc(OC)c(OC)cc3CCN2CC1CC` (centres unmarked) [Compound 4h]: 3030 ± 160 nM, 2300 ± 67 nM and 1610 ± 66 nM.
With `CCC1CN2CCc3cc(OC)c(OC)cc3C2CC1CC1c2cc(OC)c(OC)cc2CCN1C(=S)SCC(=O)c1ccc(Cl)cc1` (centres unmarked) [Compound 4i], the IC50 with PC3 cells was determined as 2690 ± 145 nM; with DU145 cells it was 2450 ± 162 nM.
For the compound `CCC1CN2CCc3cc(OC)c(OC)cc3C2CC1CC1c2cc(OC)c(OC)cc2CCN1C(=O)OCc1ccccc1` (centres unmarked) [Compound 5b], in the data set with LNCaP cells, the 50% inhibitory concentration (IC50) was determined as 2160 ± 122 nM.
For the compound `CCC1CN2CCc3cc(OC)c(OC)cc3C2CC1CC1c2cc(OC)c(OC)cc2CCN1C(=O)/C=C(/CC(=O)O)C(=O)O` (centres unmarked) [Compound 6], the “% Emetine at pH 5.5” value is 0.0% in data set [1] (pH 5.5, 0 hr); 33.9% in data set [1] (pH 5.5, 24 hrs); 42.1% in data set [1] (pH 5.5, 48 hrs). The “% Emetine at pH 6.5” value was 0.0% in data set [1] (pH 6.5, 0 hr); 13.4% in data set [1] (pH 6.5, 24 hrs); 21.1% in data set [1] (pH 6.5, 48 hrs). The “% Emetine at pH 7.4 to 8.0 over 72 hrs” value amounted to 0.0% in data set [1] (pH 7.4 to 8.0, 0 hrs); 0.0% in data set [1] (pH 7.4 to 8.0, 24 hrs); 0.0% in data set [1] (pH 7.4 to 8.0, 48 hrs).
For the compound `CCC1CN2CCc3cc(OC)c(OC)cc3C2CC1CC1c2cc(OC)c(OC)cc2CCN1S(=O)(=O)c1ccc(C)cc1` (centres unmarked) [Compound 8a], the IC50 with DU145 cells was 6240 ± 98 nM.
Take `CCC1CN2CCc3cc(OC)c(OC)cc3C2CC1CC1c2cc(OC)c(OC)cc2CCN1S(C)(=O)=O` (centres unmarked) [Compound 8b]: the IC50 in the data set on PC3 cells stood at 4010 ± 868 nM; in the data set with LNCaP cells, 2100 ± 284 nM.
Turning to `CCC1CN2CCc3cc(OC)c(OC)cc3C2CC1CC1c2cc(OC)c(OC)cc2CCN1S(=O)(=O)c1ccc(F)cc1` (centres unmarked) [Compound 8c], the concentration for half-maximal inhibition (IC50) was found to be 4580 ± 383 nM with PC3 cells and 8038 ± 60 nM in the data set on DU145 cells.
The matching figures for `CCC1CN2CCc3cc(OC)c(OC)cc3C2CC1CC1c2cc(OC)c(OC)cc2CCN1S(=O)(=O)c1ccc(Cl)cc1` (centres unmarked) [Compound 8d]: 4210 ± 435 nM and 6620 ± 167 nM.

(Values after patent US11780833B2, “Emetine derivatives, prodrugs containing same, and methods of treating conditions using same” (HOWARD UNIVERSITY, priority 2011, dated 2023).)
